In patent US6083981A, “Sulfonamide substituted aspartic acid interleukin-1β converting enzyme inhibitors” (Warner-Lambert Company, priority 1999, dated 2000) one finds IC50, CC50 and Ki data, which are given here for 14 molecules.

Data set [1] has as its target T1, ICE (Homo sapiens, UniProt P29466).
T1 sequence (P29466 120-297 limits assumed): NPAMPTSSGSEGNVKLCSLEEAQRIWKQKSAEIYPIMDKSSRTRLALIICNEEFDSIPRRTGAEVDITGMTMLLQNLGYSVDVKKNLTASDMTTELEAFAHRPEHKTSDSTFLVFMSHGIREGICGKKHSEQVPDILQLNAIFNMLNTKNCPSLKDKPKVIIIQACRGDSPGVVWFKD
T1 sequence (P29466 317-404 limits assumed): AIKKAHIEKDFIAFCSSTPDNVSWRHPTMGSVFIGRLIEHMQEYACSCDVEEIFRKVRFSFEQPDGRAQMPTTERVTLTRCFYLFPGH
The data set is described as follows: ICE Colorimetric Dose-Response (IC50) Assay. The data set is classed as biochemical. The settings on record: 24 nM ICE, 60 min preincubation, 50 μM Ac-Tyr-Val-Ala-Asp-pNA, pH 7.5, 25° C. How it is done: Aliquots of each dilution are transferred to a microtitre plate in triplicate.
(§1) ICE enzyme is diluted to approximately 24 nM in HGE buffer (100 mM Hepes pH 7.5, 0.5 mM EDTA, 20% glycerol, 0.1% Bovine Serum Albumin (BSA), and activated by adding dithiothreitol (DTT) to a final concentration of 5 mM. The activated enzyme is then aliquoted into wells containing inhibitor or vehicle, and the plate is preincubated for 60 minutes at ambient temperature. Substrate (Ac--Tyr--Val--Ala--Asp--pNA) is added to each well to a final concentration of 50 μM, and plates are placed in the microtitre plate-reader thermostated to 25° C. Beginning 5 minutes after addition of substrate, absorbance (405 nm) of wells is monitored for 1 hour, and activity is calculated as the mean rate of change in absorbance during this interval.

In data set [2] the test system is IL-1β production in human peripheral blood mononuclear cells (PBMCs). The experiment in a line: PBMC Cellular Assay, inhibition of LPS-stimulated IL-1β production. In kind it is cell-based. The settings on record: mature IL-1β by ELISA, 10 ng/mL LPS overnight, 2% human AB serum. The text has this: (§2) Further evidence that compounds of Formula I, II, and III are inhibitors of ICE is provided by their ability to inhibit IL-1β production in human peripheral blood mononuclear cells (PBMCs) as described herein. PBMCs are isolated from heparinized blood by centrifugation over a ficoll cushion, then washed three times with phosphate-buffered saline. PBMCs are suspended in a medium containing RPMI 1640 with glutamine, penicillin, streptomycin, and 2% human AB serum, then plated at 10^6 cells per well in 96 well flat bottom plates. PBMCs are stimulated overnight with 10 ng/mL of lipopolysaccharide (LPS, E. Coli strain 0111:B4; Calbiochem) in the presence or absence of a compound of Formula I. Medium is harvested and the level of mature IL-1β was determined using an ELISA kit from R & D Systems. Compound inhibition is assessed by determining the concentration of agent which reduces IL-1β levels by 50%. Cells were cultured for an additional four hours in the presence of 3-(4,5-dimethylthiazol-2-yl)-2,5-diphenyltetrazolium bromide (MTT) to determine viability. Compound toxicity can, therefore, be assessed by determining the concentration of agent which kills 50% of the cells (IC50).

For data set [3], the system named is human peripheral blood mononuclear cells (PBMCs). The experiment in a line: PBMC viability (MTT), compound toxicity. The data set is classed as cell-based.
Description: as §2

Another data set concerns the target T2, Ich-2 (Caspase-4) (Homo sapiens, UniProt P49662).
T2 sequence (P49662 81-270 limits assumed): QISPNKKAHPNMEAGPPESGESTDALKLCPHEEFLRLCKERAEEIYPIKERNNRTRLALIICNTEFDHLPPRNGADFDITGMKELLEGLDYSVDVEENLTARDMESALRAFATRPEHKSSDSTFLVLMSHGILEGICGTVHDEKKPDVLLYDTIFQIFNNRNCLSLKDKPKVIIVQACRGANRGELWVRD
T2 sequence (P49662 290-377 limits assumed): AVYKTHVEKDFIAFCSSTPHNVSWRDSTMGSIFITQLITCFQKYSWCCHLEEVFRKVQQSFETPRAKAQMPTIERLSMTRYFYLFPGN
The data set is described as follows: Ich-2 (Caspase-4) Colorimetric Dose-Response (IC50) Assay. In kind it is biochemical. The settings on record: 64 nM enzyme, 60 μM Ac-Leu-Glu-Val-Asp-pNA. As for the experimental part:
as §1
Inhibition of Ich-2 enzyme is assayed as described above for ICE, except that enzyme is used at 64 nM, and 60 μM of the Ich-2-specific substrate Ac--Leu--Glu--Val--Asp--pNA is used instead of the ICE substrate Ac--Tyr--Val--Ala--Asp--pNA.

Data set [4] concerns the target T1, ICE. The experiment in a line: ICE inhibition, fluorometric Ki (Ac-Tyr-Val-Ala-Asp-AMC substrate). The note with it: 0.24 nM ICE, 15 μM Ac-Tyr-Val-Ala-Asp-AMC, reversible competitive model. The data set is classed as biochemical. How it is done:
Substrate hydrolysis is monitored for 300 seconds by observing the fluorescence of released AMC using excitation at 380 nm and emission at 460 nm. Mean rates of substrate hydrolysis are evaluated by linear-regression analysis of the fluorescence vs time traces.

Data set [5] in a line: PBMC viability (MTT), compound toxicity. The data set is classed as cell-based. The settings on record: human, MTT viability, additional four hours, concentration which kills 50% of the cells, read-out: PBMC TC50.
Description: as §2

Take “3-(2-Sec-Butoxy-Benzenesulfonylamino)-4-Oxo-Butyric Acid [Example 27]”: the IC50 at ICE [1] was 35 µM; in data set [2] it was above 100 µM; against Ich-2 (Caspase-4) it was 118 µM. Moreover, in data set [3], the CC50 is above 100 µM. Also, on ICE [4], the Ki stood at 3.9 µM.

As to `CCC(C)c1ccc(Oc2ccccc2S(=O)(=O)NC(C=O)CC(=O)O)cc1C` (stereo not shown) [Example 28, 3-[2-(4-Sec-Butyl-3-Methyl-Phenoxy)-Benzenesulfonylamino]-4-Oxo-Butyric Acid], the IC50 stood at 1 µM against ICE [1], 18 µM in data set [2] (PBMC) and 4.6 µM at Ich-2 (Caspase-4). In data set [5], the CC50 was above 100 µM. Besides, on ICE [4], the affinity corresponds to a Ki of 0.1 µM.

With `CCC(CC)COc1ccccc1S(=O)(=O)NC(C=O)CC(=O)O` (stereo not shown) [Example 29], the IC50 at ICE [1] is 8.6 µM; in data set [2] (PBMC), 75 µM; against Ich-2 (Caspase-4) it was 215 µM. The CC50 in data set [5] is above 100 µM. The molecule also yielded a Ki on ICE [4] of 0.3 µM.

Take `O=CC(CC(=O)O)NS(=O)(=O)c1ccccc1OCCc1cccc2ccccc12` (stereo not shown) [Example 31]: the half-inhibitory concentration (IC50) against ICE [1] was 0.4 µM; in data set [2] (PBMC), 8 µM; on Ich-2 (Caspase-4), 2.3 µM. Further, the CC50 in data set [5] was above 100 µM. The Ki on ICE [4] amounted to 0.062 µM.

Take `Cc1cccc(-c2ccccc2S(=O)(=O)NC(C=O)CC(=O)O)c1` (stereo not shown) [Example 35, 3-(3'-Methyl-Biphenyl-2-Sulfonylamino)-4-Oxo-Butyric Acid]: the IC50 on ICE [1] was 37 µM; in data set [2] (PBMC) it was above 100 µM; at Ich-2 (Caspase-4), 341 µM. The CC50 in data set [5] is above 100 µM. Moreover, at ICE [4], the Ki stood at 31 µM.

For the molecule `O=CC(CC(=O)O)NS(=O)(=O)c1ccccc1Oc1ccc2ccccc2c1` (stereo not shown) [Example 36, 3-[2-(Naphthalen-2-Yloxy)-Benzenesulfonylamino]-4-Oxo-Butyric Acid], the 50% inhibitory concentration (IC50) against ICE [1] was 3.5 µM; in data set [2] (PBMC) it was 50 µM; at Ich-2 (Caspase-4), 28 µM. Further, the CC50 in data set [5] was above 100 µM. Also, affinity on ICE [4] was put at a Ki of 0.13 µM.

Regarding `Cc1cccc(S(=O)(=O)NC(C=O)CC(=O)O)c1-c1ccccc1` (stereo not shown) [Example 37, 3-(6-Methyl-Biphenyl-2-Sulfonylamino)-4-Oxo-Butyric Acid], the values for the IC50 (at ICE [1]; in data set [2] (PBMC); at Ich-2 (Caspase-4)) were 34 µM, above 100 µM and 151 µM, respectively. Further, in data set [5], the CC50 is above 100 µM. This molecule displayed an inhibition constant (Ki) on ICE [4] of 1.9 µM.

With `Cc1cccc(S(=O)(=O)NC(C=O)CC(=O)O)c1Oc1ccccc1` (stereo not shown) [Example 38, 3-(3-Methyl-2-Phenoxy-Benzenesulfonylamino)-4-Oxo-Butyric Acid], the IC50 against ICE [1] was determined as 11.2 µM; in data set [2] (PBMC), 85 µM; against Ich-2 (Caspase-4), 76 µM. In addition, in data set [5], the CC50 is above 100 µM. Also, at ICE [4], the affinity corresponds to a Ki of 0.67 µM.

With `O=CC(CC(=O)O)NS(=O)(=O)c1ccccc1Sc1ccccc1` (stereo not shown) [Example 39, 4-Oxo-3-[2-Phenylthio-Benzenesulfonylamino]-Butyric Acid], the IC50 at ICE [1] is 21 µM; in data set [2] (PBMC), above 100 µM; against Ich-2 (Caspase-4) it was 25 µM. Also, in data set [5], the CC50 is above 100 µM. For the same molecule, the Ki on ICE [4] is 1.1 µM.

On to `O=CC(CC(=O)O)NS(=O)(=O)c1ccccc1Nc1ccccc1` (stereo not shown) [Example 40, 4-Oxo-3-[2-N-Phenyl-Benzenesulfonylamino]-Butyric Acid], for which the 50% inhibitory concentration (IC50) amounted to 44 µM at ICE [1], 95 µM in data set [2] (PBMC) and 370 µM on Ich-2 (Caspase-4). Besides, the CC50 in data set [5] is above 100 µM. On ICE [4], this molecule yielded an inhibitory constant (Ki) of 10 µM.

With `Cc1cccc(S(=O)(=O)NC(C=O)CC(=O)O)c1Oc1ccc(C(C)C)cc1` (stereo not shown) [Example 41, 3-[2-(4-Isopropylphenoxy)-3-Methylbenzenesulfonylamino]-4-Oxo-Butyric Acid], the IC50 against ICE [1] came to 12 µM; in data set [2] (PBMC), 45 µM; at Ich-2 (Caspase-4) it was 9.2 µM. In addition, the CC50 in data set [5] is above 100 µM. Further, affinity at ICE [4] was put at a Ki of 1.5 µM.

As for `Cc1ccccc1Oc1c(C)cccc1S(=O)(=O)NC(C=O)CC(=O)O` (stereo not shown) [Example 42, 3-[2-(2-Methylphenoxy)-3-Methylbenzenesulfonylamino]-4-Oxo-Butyric Acid], the IC50 is 1.1 µM at ICE [1], 38 µM in data set [2] (PBMC) and 57 µM against Ich-2 (Caspase-4). In addition, the CC50 in data set [5] was above 100 µM. For the same molecule, the affinity on ICE [4] corresponds to a Ki of 0.3 µM.

On to `Cc1ccc(Oc2ccccc2)c(S(=O)(=O)NC(C=O)CC(=O)O)c1` (stereo not shown) [Example 44, 3-(5-Methyl-2-Phenoxy-Benzenesulfonylamino)-4-Oxo-Butyric Acid], for which the IC50 is 41 µM on ICE [1], above 100 µM in data set [2] (PBMC) and 199 µM at Ich-2 (Caspase-4). In addition, in data set [5], the CC50 is above 100 µM. For the same molecule, the affinity on ICE [4], expressed as Ki, was 2.2 µM.

With `Cc1ccc(S(=O)(=O)NC(C=O)CC(=O)O)c(Oc2ccccc2)c1` (stereo not shown) [Example 45, 3-(4-Methyl-2-Phenoxy-Benzenesulfonylamino)-4-Oxo-Butyric Acid], the IC50 was determined as 1.7 µM at ICE [1], 70 µM in data set [2] (PBMC) and 14 µM on Ich-2 (Caspase-4). In data set [5], the CC50 was above 100 µM. On ICE [4], this molecule gave a Ki of 18 µM.
